Reference: patent US20140243401A1, “METHODS OF SCREENING COMPOUNDS THAT ARE CYTOTOXIC TO TUMOR CELLS AND METHODS OF TREATING TUMOR CELLS USING SUCH COMPOUND” (The Johns Hopkins University, priority 2010, published 2014)
Converted amounts (≈) assume the structure as drawn.

What was measured:
[1] = tested on: Human colon cancer (HCT116); experiment: XTT cytotoxicity assay, HCT116; format: cell-based; conditions: for IC50: HCT-116; for CC50: HCT-116, read-out: LC50 (the source's name)
[2] = tested on: HCT116 human colon cancer xenograft; experiment: tumor xenograft size, HCT116; format: in vivo, Athymic Nude mice; conditions: Study 101707, HCT-116, oral b.i.d. 16 days
Description: Xenograft studies were performed using various mmFAS inhibitors disclosed herein. Human cancer xenograft studies are known in the art. (See Pizer et al., Cancer Res. 56:1189-1193, 1996; Pizer et al., Cancer Res. 60: 213-218, 2000; Testa et al., Oncogene 24: 7455-7464, 2005).
In particular, C31 mouse efficacy studies were conducted in order to evaluate anti-neoplastic activity of C31 in vivo. Athymic Nude mice were implanted with HCT116 human colon, SKOV3 human ovarian or OVCAR3 human ovarian cancer cell lines and were treated when the grown tumor xenografts reached at least 150 to 200 mm^3.^1 ^1 Compounds were solubilized in TEP (80% polyethylene glycol (PEG) 400, 10% ethanol, 10% tween-80) in a volume of 50 μL.

[3] = tested on: SKOV3 human ovarian cancer cells; experiment: JC-1 staining, mitochondrial membrane potential in SKOV3 cells; format: cell-based; conditions: SKOV3, drug in DMSO applied 30 min prior to staining
Source text: JC-1 staining is an indicator of mitochondrial membrane potential; with this assay, mitochondria within cells stained with this fluorescent dye emit a wavelength in the red spectrum when mitochondrial membrane potential is intact. When mitochondria are depolarized, the wavelength of the spectrum emitted changes to green. Therefore, the ratio of red/green fluorescence will give an indication of the intactness of the membrane potential of mitochondria, and thus mitochondrial function.
The left panels show granular red-staining indicating mitochondria with intact membrane potential is brightest in control, and decreases with increasing concentrations of C31. Conversely, the right panels show the diffuse cytoplasmic green-staining which indicates mitochondrial depolarization, is dimmest in control and brightest at the highest concentration of C31 tested. Drug was solubilized in DMSO and applied for 30 min prior to staining.

[4] = tested on: Human ovarian cancer (OVCAR); experiment: XTT cytotoxicity assay, OVCAR; format: cell-based; conditions: for CC50: read-out: LC50 (the source's name)
Description: (See, e.g., Rothman, S., J Clin. Pathol. 39: 672-676, 1986). For example, to measure the cytotoxicity of a test compound against cancer cells, cells (e.g., SKOV-3 cells or OVCAR-3) are plated in 96-well plates. Following overnight culture, the compound is added to the cells at specified concentrations. After 72 hours of incubation, cells are incubated for 4 hours with the XTT reagent as per manufacturer's instructions (Cell Proliferation Kit II (XTT) Roche Diagnostics, New Jersey), and the amount of color produced by viable cells is measured spectrophotometrically. […] is calculated by linear regression, plotting the color produced in treated cells as percent of control (untreated) cells versus drug concentrations.
(§1) Cytotoxicity can be easily measured using XTT assays, which provide an indication of mitochondrial activity. The XTT assay is a non-radioactive alternative for the [^51Cr] release cytotoxicity assay. XTT is a tetrazolium salt that is reduced to a formazan dye only by metabolically active, viable cells. The reduction of XTT is measured spectrophotometrically as OD490-OD650. Thus, cells that are actively metabolizing will form reaction product when subjected to XTT measurement.
(§2) For this experiment, cells were cultured under standard culture conditions. MCF7 human breast cancer cells were cultured in DMEM containing 5 mM glucose medium with 10% fetal calf serum, 0.01 mg/ml insulin and 1% penicillin/streptomycin. To measure the cytotoxicity of specific compounds against cancer cells, 9×10^3 MCF7 cells were plated per well in 96-well plates. Following overnight culture, the compounds, dissolved in DMSO, were added to the wells in 1 μl volume at specified concentrations. Vehicle controls were run for each experiment. Each condition was run in triplicate. After 24 to 72 h of incubation, cells were incubated for 4 hours with the XTT reagent as per manufacturer's instructions (Cell Proliferation Kit II (XTT) Roche Diagnostics, New Jersey). Plates were read at OD490 on a PerkinElmer Victor 1420. Three wells containing the XTT reagent without cells served as the plate blank. XTT data were reported as OD490.

[5] = tested on: MCF7 cells; experiment: 14C-acetate incorporation into lipids in MCF7 cells; format: cell-based, human; conditions: Homo sapiens; MCF7 cells, second experiment
Description: (§3) MCF7 human breast cancer cells (a cell line which overexpresses FAS) were cultured in DMEM containing 5 mM glucose medium with 10% fetal calf serum, 0.01 mg/ml insulin and 1% penicillin/streptomycin. For measurement of fatty acid synthesis cells were cultured in 24-well plates at 5×10^4 per well and incubated overnight. Fatty acid synthesis was assayed by a 2 h pulse of [U^14C]acetate, 1 μCi/well, followed by Folch extraction and scintillation counting. Test compounds were added with the addition of drugs as described. Controls were treated with DMSO alone.
as §3, with “cells” for “cells (a cell line which overexpresses FAS)”, “containing 1 mM or” for “containing”, “glucose in the” for “glucose”, “penicillin/streptomycin. The cells were grown in two oxygen conditions, normoxia (21% 02) or hypoxia (1% 02).” for “penicillin/streptomycin.”, “counting” for “counting. Test compounds were added”

[6] = tested on: MCF7 human breast cancer cells; experiment: XTT cytotoxicity assay, MCF7; format: cell-based; conditions: Homo sapiens, MCF7, XTT, MCF-7; for CC50: read-out: LC50 (the source's name)
Description: as §1, §2
MCF7 human breast cancer cells were cultured in DMEM containing 1 mM or 5 mM glucose in the medium with 10% fetal calf serum, 0.01 mg/ml insulin and 1% penicillin/streptomycin. The cells were grown in two oxygen conditions, normoxia (21% 02) or hypoxia (1% 02). To measure the cytotoxicity of specific compounds against cancer cells, 9×10^3 MCF7 cells were plated per well in 96-well plates. Following overnight culture, the compounds, dissolved in DMSO, were added to the wells in 1 μl volume at specified concentrations. After 24 to 72 h of incubation, cells were incubated for 4 h with the XTT reagent as per manufacturer's instructions (Cell Proliferation Kit II (XTT) Roche Diagnostics, New Jersey). Plates were read at OD490 on a PerkinElmer Victor 1420. Three wells containing the XTT reagent without cells served as the plate blank. XTT data were reported as OD490Vehicle controls were run for each experiment. Each condition was run in triplicate.

[7] = tested on: mitochondrial FAS; experiment: 14C-malonate incorporation into mitochondrial fatty acids, mitochondria isolated from rat liver; format: biochemical; conditions: FIG. 3
Description: Mammalian mitochondrial FAS activity may be determined in a variety of ways. For example, [14C]malonate may be added to isolated mitochondria, fatty acids are extracted, and then radioactivity is tested. (See Zhang et al., J. Bio. Chem. 278(41): 40067-40074, 2003; Mikolajczyk, J. and Brody, S., Eur. J. Biochem. 187: 431-437, 1990). The mitochondria are purified using methods known in the art. (See Qiagen's Qproteome Mitochondria Isolation Kit; Methods in Enzymology, Vol. 10, Chapter 11, 1967). To test the inhibition of mmFAS activity, a test compound is added to the reaction mixture. Therefore, a test compound may be screened according the methods described herein as follows: (i) isolating mitochondria; (ii) incubating mitochondria with [14C]malonate with and without a test compound; and (iii) determining the quantity of lipids and/or fatty acids produced. By comparing the amount of product in the presence of the test compound to the amount in its absence, the degree of inhibition can be determined.
Mitochondria from MCF7 cells were prepared following manufacturer's protocol (Mitochondria Isolation Kit, Sigma, Saint Louis, Mo.). Rat liver mitochondria were isolated by homogenization with a tissue homogenizer in H-medium (220 mM mannitol, 70 mM sucrose, 2 mM HEPES, and 0.5 g/L of fatty acid free bovine serum albumin, pH 7.4). The homogenate was centrifuged at 1100 g for 3 min and washed twice with H-medium. The supernatants were pooled and centrifuged at 6800 g for 15 min. The pellet was then rinsed again and centrifuged at 3000 g for 3 min. The mitochondria supernatants were saved. The sediments were resuspended in H-medium and centrifuged at 3000 g for 3 min. The mitochondria supernatants were combined and centrifuged at 20,000 g for 15 min. The resulting mitochondria pellet were rinsed and centrifuged again at 20,000 g for 20 min.
Isolated mitochondria (100-200 μg) were mixed with 50 mM TES-KOH (pH 7.2), 10 mM MgCl2, 0.3 M sorbitol, 0.1% BSA, 1 mM each of ATP, ADP, NADH, NADPH, CoA, DTT and 1 μCi of [2-^14C]malonic acid (50 mCi/mmol) in a total volume of 200 μl. The reaction was performed for 30 min at room temperature. C31, Riv7d or vehicle were added at the beginning of this reaction. At the end of 30 minutes, the mitochondria pellet was separated from supernatant by centrifugation at 14000 rpm for 5 min. After washing with 500 μl of 50 mM TES-KOH (pH 7.2) and 0.3 M sorbitol, the mitochondria were incubated in 200 μl of H2O and 20 μl of 10 M KOH for 15 min at 65° C. Then the samples were added with 40 μl of 5 M H2SO4 and 20 μl of 1 mM palmitic acid (in 1 M acetic acid in isopropanol). The ^14C labeled fatty acids were twice extracted with hexane and sent to scintillation counting after drying.

Structure (SMILES) | IC50 [1] | CC50 [1] | Average Tumor Size Endpoint (% Change) ([2]; 53 mg/kg) | mitochondrial depolarization (JC-1 staining) [3] | IC50 [4] | CC50 [4] | IC50 [5] | IC50 [6] | CC50 [6] | IC50, inhibition of mitochondrial FAS (14C-malonate incorporation) ([7]; isolated mitochondria) | effect on 14C-malonate incorporation into mitochondrial fatty acids ([7]; mitochondria isolated from rat liver) | Average Tumor Size Endpoint (% Change) ([2]; 55 mg/kg)
CCCCCCCCC1(C)SC(=O)C=C1OCC(=O)Nc1ccc(C(F)(F)F)cc1 (centres unmarked) [Compound C144] | 4.8 µg/mL (≈ 10.8 µM) | 10.8 µM | −91 % Change | depolarization of the mitochondria in the SKOV3 human ovarian cancer cells which is dose-dependent | 4 µg/mL (≈ 9.02 µM) | 9 µM | > 5.6 µM | 2.2 µg/mL (≈ 4.96 µM) | 4.9 µM | – | – | –
Oc1cc(Cl)ccc1Oc1ccc(Cl)cc1Cl [Triclosan, triclosan, reference compound] | – | – | – | – | – | – | – | – | – | 3 μg per mL | inhibitory effect | –
CCCCCCCCC1(C)SC(=O)C=C1OCC(=O)Nc1ccc(OC(F)(F)F)cc1 (centres unmarked) [Compound C145] | 3.5 µg/mL (≈ 7.62 µM) | 7.6 µM | – | depolarization of the mitochondria in the SKOV3 human ovarian cancer cells which is dose-dependent | 3.3 µg/mL (≈ 7.18 µM) | 7.2 µM | 17.8 µM | 1.8 µg/mL (≈ 3.92 µM) | 3.9 µM | – | – | +236 % Change
